Assay results as given in patent US11958863B2, “Binding competitors for use in macrophilin-binding pharmaceutical assays and methods of use thereof” (Siemens Healthcare Diagnostics Inc., priority 2018, dated 2024).

What was measured:
[1] = system: tacrolimus assay antibody (1E2 Clone); assay: Cross-reactivity with tacrolimus assay antibody; format: binding; details: for Cross-reactivity with tacrolimus assay antibody (in words): 1E2 clone, compared with the '518 patent analog; for % Cross-Reactivity: tacrolimus assay antibody 1E2 clone
Experimental: (§1) Table 2 indicates the cross-reactivities detected for the various displacers of the present disclosure with the everolimus assay antibody (155-M1), while Table 3 indicates the cross-reactivities detected for the various displacers of the present disclosure with the tacrolimus assay antibody (1E2 clone).
Next, the cross-reactivity of each of the analogs used in the everolimus assay was tested with the antibody used in the tacrolimus assay (Table 3). While efforts may be made to minimize reagent carryover from the everolimus assay to the tacrolimus assay, an automated instrument may run both everolimus and tacrolimus (or sirolimus) assays simultaneously. Therefore, due to the use of a large amount of displacer (tacrolimus analogs) present in the everolimus assay, the displacer could be carried into the tacrolimus assay, and this would cause a falsely elevated signal in the tacrolimus assay if cross-reaction were observed.

[2] = system: everolimus assay antibody (155-M1 Clone); assay: Cross-reactivity with everolimus assay antibody; format: binding, mouse; details: for % Cross-Reactivity: everolimus assay antibody 155-M1 clone
Experimental: (§2) The automated DIMENSION® assay system (Siemens Healthcare Diagnostics Inc., Tarrytown, NY), the everolimus (EVRO) assay method uses an immunoassay technique in which free and everolimus-bound antibody-enzyme conjugate is separated using magnetic particles. The assay antibody used for this assay is a mouse monoclonal antibody (cell line: 155-M1). The assay was performed using a method specific FLEX® reagent cartridge (Siemens Healthcare Diagnostics Inc., Tarrytown, NY). The FLEX® reagent cartridge contains a pretreatment reagent, antibody-β-galactosidase conjugate, everolimus analog immobilized on chromium dioxide particles, chlorophenol red β-d-galactopyranoside (CPRG) substrate, and diluent to hydrate the tablets. To perform the EVRO assay, a sample cup (or SSC) containing the whole blood sample to be analyzed and an EVRO FLEX® reagent cartridge were placed appropriately on the DIMENSION® system. The DIMENSION® system mixed and lysed the whole blood sample in the presence of the pretreatment reagent that contains detergents and a displacer (FK506 or FK506 analogs as described previously). This reagent contains a displacer which acts to displace everolimus in the sample from endogenous binding proteins (immunophilins such as FKBPs, etc.). The lysed sample was then mixed with the antibody enzyme conjugate. The everolimus present in the sample was bound by the everolimus antibody. Magnetic particles coated with everolimus analog were added to bind free (unbound) antibody-enzyme conjugate. The reaction mixture was then separated magnetically. Following separation, the supernatant containing the everolimus-antibody-enzyme complex was transferred to a cuvette and mixed with the substrate, chlorophenol red β-d-galactopyranoside (CPRG). β-galactosidase catalyzes the hydrolysis of CPRG to produce chlorophenol red (CPR) that absorbs light maximally at 577 nm. The change in absorbance at 577 nm due to the formation of CPR is directly proportional to the amount of everolimus in the patient's sample and is measured using a bichromatic (577 nm, 700 nm) rate technique.
as §1

[3] = system: endogenous binding proteins (immunophilins such as FKBPs); assay: Everolimus (EVRO) DIMENSION immunoassay standard curves with displacers; details: whole blood sample
Experimental: as §2
The assay was conducted in the absence of any displacer as well as in the presence of the following displacers: tacrolimus (FK506, as represented by Formula I), FK506 Ester (disclosed in U.S. Pat. No. 7,186,518), FK506 C24 succinate (as represented by Formula VII), Reduced FK506 (as represented by Formula IV), FK506 22-oxime-32-isocyanatoacetatethyl ester (as represented by Formula VI), and FK506 oxime (as represented by Formula V).
The ability of the FK analogs to displace everolimus drug in the everolimus assay is a function of their FKBP (macrophilin) binding. So the curve size after adding the displacer indicates the ability of their FKBP binding: the larger the curve size, the better the binding.

Everolimus standard curve signal with displacer ([3]; BV 0 ng/mL everolimus)	Everolimus standard curve signal with displacer ([3]; BV 5.5 ng/mL everolimus)	Everolimus standard curve signal with displacer ([3]; BV 11.2 ng/mL everolimus)	Everolimus standard curve signal with displacer ([3]; BV 21.9 ng/mL everolimus)	Everolimus standard curve signal with displacer ([3]; BV 34.3 ng/mL everolimus)	Compound	Cross-reactivity with tacrolimus assay antibody (in words) [1]	% Cross-Reactivity [1] [%]	% Cross-Reactivity [2] [%]	Cross-reactivity with everolimus assay antibody (in words) ([2]; 155-M1 clone)
18	68	102	140	154	CCC[C@@H]1CC(C)C[C@H](C)C[C@H](OC)[C@H]2O[C@@](O)(C(=O)C(=O)N3CCCC[C@H]3C(=O)O[C@H](C(C)C[C@@H]3CC[C@@H](OC(=O)NCC(=O)OCC)[C@H](OC)C3)[C@H](C)[C@@H](O)CC1=NOCC(=O)O)[C@H](C)C[C@@H]2OC (stereo partly drawn) [FK-506-1]	much lower cross-reactivities	1.5	0.02	
16	71	108	145	157	C=CC[C@@H]1/C=C(\C)C[C@H](C)C[C@H](OC)[C@H]2O[C@@](O)(C(=O)C(=O)N3CCCC[C@H]3C(=O)O[C@H](/C(C)=C/[C@@H]3CC[C@@H](O)[C@H](OC)C3)[C@H](C)[C@@H](OC(=O)CCC(=O)O)CC1=O)[C@H](C)C[C@@H]2OC [24-Succinate FK506, FK506 C24 succinate]	much lower cross-reactivities	13.3	0.01	
17	67	104	143	156	C=CC[C@@H]1/C=C(\C)C[C@H](C)C[C@H](OC)[C@H]2O[C@@](O)(C(=O)C(=O)N3CCCC[C@H]3C(=O)O[C@H](/C(C)=C/[C@@H]3CC[C@@H](O)[C@H](OC)C3)[C@H](C)[C@@H](O)CC1=O)[C@H](C)C[C@@H]2OC [FK506, Tacrolimus, reference compound]		100	0.01	substantially no cross-reactivity
